pIC50: −log10 of the molar value. Counter-ions that a name gives are not always drawn.

The target of the experiment is Factor D (Homo sapiens (Human), UniProt P00746). Kind of experiment: biochemical. It is filed as biochemical. The settings on record: read-out: IC50.
Sequence of Factor D (P00746 26-253): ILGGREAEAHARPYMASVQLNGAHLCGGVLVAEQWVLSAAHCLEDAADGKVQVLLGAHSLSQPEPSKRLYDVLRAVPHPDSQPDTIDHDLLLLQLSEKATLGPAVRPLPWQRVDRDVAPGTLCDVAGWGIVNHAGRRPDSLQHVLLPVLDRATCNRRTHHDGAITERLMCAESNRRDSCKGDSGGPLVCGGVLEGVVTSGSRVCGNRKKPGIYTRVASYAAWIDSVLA

The term pIC50 denotes −log10 of the IC50, conventionally taken in molar units. For `NC(=O)c1nn(CC(=O)N2CCCC[C@H]2C(=O)NCc2cccc(Cl)c2F)c2cnccc12` [Example 656, 1-{2-[(S)-2-(3-Chloro-2-fluoro-benzylcarbamoyl)-piperidin-1-yl]-2-oxo-ethyl}-1H-pyrazolo[3,4-c]pyridine-3-carboxylic acid amide], the pIC50 is 6.45. Turning to `NC(=O)c1nn(CC(=O)N2CCS[C@H]2C(=O)NCc2cccc(Cl)c2F)c2cnccc12` [Example 657, 1-{2-[(S)-2-(3-Chloro-2-fluoro-benzylcarbamoyl)-thiazolidin-3-yl]-2-oxo-ethyl}-1H-pyrazolo[3,4-c]pyridine-3-carboxylic acid amide], the negative logarithm of the IC50 (pIC50) is 7.11.

Take `CO[C@H]1[C@@H](C(=O)NCc2cccc(Cl)c2F)N(C(=O)Cn2cc(C(C)=O)c3cc(C)ncc32)C[C@@H]1F` [Example 658, (2S,3S,4S)-1-[2-(3-Acetyl-5-methyl-pyrrolo[2,3-c]pyridin-1-yl)-acetyl]-4-fluoro-3-methoxy-pyrrolidine-2-carboxylic acid 3-chloro-2-fluoro-benzylamide formate]: the pIC50 is 7.62. Turning to `CO[C@H]1[C@@H](C(=O)NC2(c3cccc(Cl)c3F)CC2)N(C(=O)Cn2nc(C(N)=O)c3cccnc32)C[C@@H]1F` [Example 659, 1-(2-{(2S,3S,4S)-2-[1-(3-Chloro-2-fluoro-phenyl)-cyclopropylcarbamoyl]-4-fluoro-3-methoxy-pyrrolidin-1-yl}-2-oxo-ethyl)-1H-pyrazolo[3,4-b]pyridine-3-carboxylic acid amide], the pIC50 was 7.60. As to `CO[C@H]1[C@@H](C(=O)NC2(c3cccc(Cl)c3F)CC2)N(C(=O)Cn2nc(C(N)=O)c3cnccc32)C[C@@H]1F` [Example 660, 1-(2-{(2S,3S,4S)-2-[1-(3-Chloro-2-fluoro-phenyl)-cyclopropylcarbamoyl]-4-fluoro-3-methoxy-pyrrolidin-1-yl}-2-oxo-ethyl)-1H-pyrazolo[4,3-c]pyridine-3-carboxylic acid amide], the pIC50 is 7.80. For `CO[C@H]1[C@@H](C(=O)NCc2cccc(Cl)c2F)N(C(=O)Cn2nc(C(N)=O)c3cc(C)ncc32)C[C@@H]1F` [Example 661, 1-{2-[(2S,3S,4S)-2-(3-Chloro-2-fluoro-benzylcarbamoyl)-4-fluoro-3-methoxy-pyrrolidin-1-yl]-2-oxo-ethyl}-5-methyl-1H-pyrazolo[3,4-c]pyridine-3-carboxylic acid amide], the pIC50 is 8.00. As for `CO[C@H]1[C@@H](C(=O)NCc2cccc(Cl)c2F)N(C(=O)Cn2nc(C(N)=O)c3ccncc32)C[C@@H]1F` [Example 662, 1-{2-[(2S,3S,4S)-2-(3-Chloro-2-fluoro-benzylcarbamoyl)-4-fluoro-3-methoxy-pyrrolidin-1-yl]-2-oxo-ethyl}-1H-pyrazolo[3,4-c]pyridine-3-carboxylic acid amide], the pIC50 was 7.89. Consider `CO[C@H]1[C@@H](C(=O)NCc2cccc(Cl)c2F)N(C(=O)Cn2nc(C(N)=O)c3cnccc32)C[C@@H]1F` [Example 663, 1-{2-[(2S,3S,4S)-2-(3-Chloro-2-fluoro-benzylcarbamoyl)-4-fluoro-3-methoxy-pyrrolidin-1-yl]-2-oxo-ethyl}-1H-pyrazolo[4,3-c]pyridine-3-carboxylic acid amide], for which the negative-log IC50 (pIC50) was 7.44. Then `CO[C@H]1[C@@H](C(=O)N[C@H](C)c2cccc(Cl)c2F)N(C(=O)Cn2nc(C(N)=O)c3ccncc32)C[C@@H]1F` [Example 664, 1-(2-{(2S,3S,4S)-2-[(R)-1-(3-Chloro-2-fluoro-phenyl)-ethylcarbamoyl]-4-fluoro-3-methoxy-pyrrolidin-1-yl}-2-oxo-ethyl)-1H-pyrazolo[3,4-c]pyridine-3-carboxylic acid amide], with 7.62; and `CO[C@H]1[C@@H](C(=O)N[C@H](C)c2cccc(Cl)c2F)N(C(=O)Cn2nc(C(N)=O)c3cnccc32)C[C@@H]1F` [Example 665, 1-(2-{(2S,3S,4S)-2-[(R)-1-(3-Chloro-2-fluoro-phenyl)-ethylcarbamoyl]-4-fluoro-3-methoxy-pyrrolidin-1-yl}-2-oxo-ethyl)-1H-pyrazolo[4,3-c]pyridine-3-carboxylic acid amide], with 7.24; and `CC(=O)c1cn(CC(=O)N2[C@@H]3C[C@@H]3C[C@H]2C(=O)NCc2cccc(Cl)c2F)c2ccc(OCc3ncccn3)cc12` [Example 666, (1R,3S,5R)-2-{2-[3-Acetyl-5-(pyrimidin-2-ylmethoxy)-indol-1-yl]-acetyl}-2-aza-bicyclo [3.1.0]hexane-3-carboxylic acid 3-chloro-2-fluoro-benzylamide], with 8.22. `CCO[C@H]1[C@@H](C(=O)NCc2cccc(Cl)c2F)N(C(=O)Cn2cc(C(C)=O)c3cc(C)ncc32)C[C@@H]1F` [Example 667, (2S,3S,4S)-1-[2-(3-Acetyl-5-methyl-pyrrolo[2,3-c]pyridin-1-yl)-acetyl]-3-ethoxy-4-fluoro-pyrrolidine-2-carboxylic acid 3-chloro-2-fluoro-benzylamide formate]: the negative logarithm of the IC50 (pIC50) was 7.80. Then `NC(=O)c1nn(CC(=O)N2[C@@H]3C[C@@H]3C[C@H]2C(=O)Nc2cccc(Br)c2F)c2cnccc12` [Example 668, 1-{2-[(1R,3S,5R)-3-(3-Bromo-2-fluoro-phenylcarbamoyl)-2-aza-bicyclo[3.1.0]hex-2-yl]-2-oxo-ethyl}-1H-pyrazolo[3,4-c]pyridine-3-carboxylic acid amide], with 7.72. The same measure for `Cc1cc2c(C(N)=O)nn(CC(=O)N3[C@@H]4C[C@@H]4C[C@H]3C(=O)Nc3cccc(Br)c3F)c2cn1` [Example 670, 1-{2-[(1R,3S,5R)-3-(3-Bromo-2-fluoro-phenylcarbamoyl)-2-aza-bicyclo[3.l.0]hex-2-yl]-2-oxo-ethyl}-5-methyl-1H-pyrazolo[3,4-c]pyridine-3-carboxylic acid amide]: 7.05; for `CCc1cc2c(C(N)=O)nn(CC(=O)N3[C@@H]4C[C@@H]4C[C@H]3C(=O)Nc3cccc(Br)c3F)c2cn1` [Example 671, 1-{2-[(1R,3S,5R)-3-(3-Bromo-2-fluoro-phenylcarbamoyl)-2-aza-bicyclo[3.1.0]hex-2-yl]-2-oxo-ethyl}-5-ethyl-1H-pyrazolo[3,4-c]pyridine-3-carboxylic acid amide]: 7.11; for `CC(C)c1cccc(NC(=O)[C@@H]2C[C@H]3C[C@H]3N2C(=O)Cn2nc(C(N)=O)c3ccncc32)n1` [Example 673, 1-{2-[(1R,3S,5R)-3-(6-Isopropyl-pyridin-2-ylcarbamoyl)-2-aza-bicyclo [3.1.0]hex-2-yl]-2-oxo-ethyl}-1H-pyrazolo[3,4-c]pyridine-3-carboxylic acid amide]: 6.80.

In the case of `NC(=O)c1nn(CC(=O)N2[C@@H]3C[C@@H]3C[C@H]2C(=O)Nc2cccc(C3CC3)c2F)c2ccccc12` [Example 674, 1-{2-[(1R,3S,5R)-3-(3-Cyclopropyl-2-fluoro-phenylcarbamoyl)-2-aza-bicyclo[3.2.1]hex-2-yl]-2-oxo-ethyl}-1H-indazole-3-carboxylic acid amide], the pIC50 was 7.12. Turning to `C[C@@]12C[C@@H](C(=O)NCc3cccc(Cl)c3F)N(C(=O)Cn3nc(C(N)=O)c4ccncc43)[C@@H]1C2` [Example 675, 1-{2-[(1R,3S,5R)-3-(3-Chloro-2-fluoro-benzylcarbamoyl)-5-methyl-2-aza-bicyclo [3.1.0]hex-2-yl]-2-oxo-ethyl}-1H-pyrazolo[3,4-c]pyridine-3-carboxylic acid amide], the pIC50 is 7.64.

`CC(=O)c1nn(CC(=O)N2[C@@H]3C[C@@H]3C[C@H]2C(=O)N[C@H](CO)c2cccc(Cl)c2F)c2ncccc12` [Example 677, (1R,3S,5R)-2-[2-(3-Acetyl-pyrazolo[3,4-b]pyridin-1-yl)-acetyl]-2-aza-bicyclo [3.1.0]hexane-3-carboxylic acid [(S)-1-(3-chloro-2-fluoro-phenyl)-2-hydroxy-ethyl]-amide]: the pIC50 was 8.00. Then `COC[C@@H](NC(=O)[C@@H]1C[C@H]2C[C@H]2N1C(=O)Cc1nc(C(C)=O)c2ccccn12)c1cccc(Cl)c1F` [Example 678, (1R,3S,5R)-2-[2-(1-Acetyl-imidazo[1,5-a]pyridin-3-yl)-acetyl]-2-aza-bicyclo [3.1.0]hexane-3-carboxylic acid [(S)-1-(3-chloro-2-fluoro-phenyl)-2-methoxy-ethyl]-amide], with 7.40; and `CC(=O)c1nc(CC(=O)N2[C@@H]3C[C@@H]3C[C@H]2C(=O)N[C@H](CC#N)c2cccc(Cl)c2F)n2ccccc12` [Example 679, (1R,3S,5R)-2-[2-(1-Acetyl-imidazo[1,5-a]pyridin-3-yl)-acetyl]-2-aza-bicyclo[3.1.0]hexane-3-carboxylic acid [(R)-1-(3-chloro-2-fluoro-phenyl)-2-cyano-ethyl]-amide], with 6.87; and `CO[C@H]1[C@@H](C(=O)NCc2cccc(Cl)c2F)N(C(=O)Cn2nc(C(C)=O)c3ccccc32)C[C@@H]1F` [Example 680, (2S,3S,4S)-1-[2-(3-Acetyl-indazol-1-yl)-acetyl]-4-fluoro-3-methoxy-pyrrolidine-2-carboxylic acid 3-chloro-2-fluoro-benzylamide], with 7.80. On to `CO[C@H]1[C@@H](C(=O)NCc2cccc(Cl)c2F)N(C(=O)Cn2cc(C(C)=O)c3ccncc32)C[C@@H]1F` [Example 681, (2S,3S,4S)-1-[2-(3-Acetyl-pyrrolo[2,3-c]pyridin-1-yl)-acetyl]-4-fluoro-3-methoxy-pyrrolidine-2-carboxylic acid 3-chloro-2-fluoro-benzylamide], for which the pIC50 is 7.72. Then `CO[C@H]1[C@@H](C(=O)NCc2cccc(Cl)c2F)N(C(=O)Cn2nc(C(C)=O)c3ccncc32)C[C@@H]1F` [Example 682, (2S,3S,4S)-1-[2-(3-Acetyl-pyrazolo[3,4-c]pyridin-1-yl)-acetyl]-4-fluoro-3-methoxy-pyrrolidine-2-carboxylic acid 3-chloro-2-fluoro-benzylamide], with 7.92; and `NC(=O)c1nn(CC(=O)N2[C@@H]3C[C@@H]3C[C@H]2C(=O)Nc2cccc(-c3ccccc3F)c2F)c2cnccc12` [Example 684, 1-{2-[(1R,3S,5R)-3-(2,2′-Difluoro-biphenyl-3-ylcarbamoyl)-2-aza-bicyclo[3.1.0]hex-2-yl]-2-oxo-ethyl}-1H-pyrazolo[3,4-c] pyridine-3-carboxylic acid amide], with 7.57.

Values taken from patent US9085555B2, “Complement pathway modulators and uses thereof” (priority 2011, dated 2015).
